In ChEMBL document CHEMBL5149977, “FLT3 Inhibitors in Acute Myeloid Leukemia: Challenges and Recent Developments in Overcoming Resistance” (J Med Chem, 2021):
pIC50, pKd: −log10 of the molar value. One block for each compound: values may come before it.

Key:
BaF3 [1] = assay: cells; settings: Mus musculus
BaF3 [2] = assay: cells; settings: Mus musculus; remark: listed apart in the source
MV4-11 [3] = assay: cells; settings: Homo sapiens
MOLM-14 [4] = assay: cells; settings: Homo sapiens
BaF3 [5] = assay: cells; settings: Mus musculus; remark: listed apart in the source
BaF3 [6] = assay: cells; settings: Mus musculus; remark: listed apart in the source
BaF3 [7] = assay: cells; settings: Mus musculus; remark: listed apart in the source
BaF3 [8] = assay: cells; settings: Mus musculus; remark: listed apart in the source
MOLM-14 [9] = assay: cells; settings: Homo sapiens; remark: listed apart in the source
[10] = target: Receptor-type tyrosine-protein kinase FLT3 (Homo sapiens, UniProt P36888, D835Y); assay: Binding affinity to FLT3-D835Y mutant (unknown origin) assessed as dissociation constant
MV4-11 [11] = assay: Cytotoxicity against human MV4-11 cells […] incubated for 72 hrs; assay type: functional, cell-based; settings: MV4-11, 72 h
[12] = target: Cyclin-dependent kinase 2 (Homo sapiens, UniProt P24941); assay: Inhibition of CDK2 (unknown origin)
MV4-11 [13] = assay: Cytotoxicity against human MV4-11 cells incubated for 72 hrs; assay type: functional, cell-based; settings: MV4-11, 72 h
[14] = target: Cyclin-dependent kinase 6 (Homo sapiens, UniProt Q00534); assay: Inhibition of CDK6 (unknown origin)
Cyclin-dependent kinase 6, sequence (Q00534 whole entry): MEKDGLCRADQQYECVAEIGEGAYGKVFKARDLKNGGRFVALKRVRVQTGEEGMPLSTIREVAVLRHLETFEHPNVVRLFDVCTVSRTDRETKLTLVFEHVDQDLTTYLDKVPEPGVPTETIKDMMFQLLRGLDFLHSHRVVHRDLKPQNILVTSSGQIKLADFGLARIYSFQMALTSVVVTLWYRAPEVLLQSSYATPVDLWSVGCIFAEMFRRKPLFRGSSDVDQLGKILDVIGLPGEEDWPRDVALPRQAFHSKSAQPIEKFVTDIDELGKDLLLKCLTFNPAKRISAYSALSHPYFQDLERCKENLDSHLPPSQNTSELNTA

[15] = target: T1, Receptor-type tyrosine-protein kinase FLT3 (Homo sapiens, UniProt P36888)
T1 sequence (P36888 whole entry): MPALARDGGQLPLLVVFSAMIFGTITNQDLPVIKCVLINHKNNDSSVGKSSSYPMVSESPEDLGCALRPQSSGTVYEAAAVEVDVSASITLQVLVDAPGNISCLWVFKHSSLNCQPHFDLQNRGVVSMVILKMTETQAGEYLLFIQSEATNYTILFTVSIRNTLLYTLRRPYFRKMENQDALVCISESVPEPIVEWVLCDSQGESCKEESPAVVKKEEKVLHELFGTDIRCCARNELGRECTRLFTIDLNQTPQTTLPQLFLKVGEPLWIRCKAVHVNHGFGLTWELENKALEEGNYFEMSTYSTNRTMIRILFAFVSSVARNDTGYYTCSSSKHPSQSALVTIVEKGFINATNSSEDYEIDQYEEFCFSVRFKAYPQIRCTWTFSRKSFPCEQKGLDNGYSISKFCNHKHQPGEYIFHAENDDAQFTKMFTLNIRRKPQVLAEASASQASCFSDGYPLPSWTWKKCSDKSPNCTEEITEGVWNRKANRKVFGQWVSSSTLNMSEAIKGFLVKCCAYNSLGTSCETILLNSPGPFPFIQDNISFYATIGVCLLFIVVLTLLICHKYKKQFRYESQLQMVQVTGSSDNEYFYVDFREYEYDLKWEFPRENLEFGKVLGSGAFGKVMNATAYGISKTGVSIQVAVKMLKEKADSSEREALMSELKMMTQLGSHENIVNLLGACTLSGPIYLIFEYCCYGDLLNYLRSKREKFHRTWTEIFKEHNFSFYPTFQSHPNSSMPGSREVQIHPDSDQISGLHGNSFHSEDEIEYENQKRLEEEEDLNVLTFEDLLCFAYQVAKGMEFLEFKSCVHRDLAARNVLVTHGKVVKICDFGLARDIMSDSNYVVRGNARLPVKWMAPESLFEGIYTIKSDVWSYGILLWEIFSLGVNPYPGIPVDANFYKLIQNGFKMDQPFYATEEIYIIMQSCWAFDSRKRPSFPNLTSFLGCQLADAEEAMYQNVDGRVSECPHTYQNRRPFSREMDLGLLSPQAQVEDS

[16] = target: Cyclin-dependent kinase 4 (Homo sapiens, UniProt P11802); assay: Inhibition of CDK4 (unknown origin)
Cyclin-dependent kinase 4, sequence (P11802 whole entry): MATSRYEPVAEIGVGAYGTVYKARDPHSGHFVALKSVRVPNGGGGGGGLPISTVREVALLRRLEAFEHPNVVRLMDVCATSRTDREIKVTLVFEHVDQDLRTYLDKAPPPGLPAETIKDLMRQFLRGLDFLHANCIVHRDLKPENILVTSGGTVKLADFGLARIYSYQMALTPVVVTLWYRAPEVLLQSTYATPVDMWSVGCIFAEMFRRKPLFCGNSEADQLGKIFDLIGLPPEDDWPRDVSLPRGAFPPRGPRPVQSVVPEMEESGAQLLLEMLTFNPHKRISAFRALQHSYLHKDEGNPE

[17] = target: Receptor-type tyrosine-protein kinase FLT3 (Homo sapiens, UniProt P36888, D835H); assay: Binding affinity to FLT3-D835H mutant (unknown origin) assessed as dissociation constant
[18] = target: Receptor-type tyrosine-protein kinase FLT3 (Homo sapiens, UniProt P36888, ITD); assay: Inhibition of FLT3-ITD (unknown origin)
MOLM-13 [19] = assay: Antiproliferative activity against drug resistant human MOLM-13 cells incubated for 72 hrs by MTS assay; assay type: functional
MOLM-13 [20] = assay: Antiproliferative activity against human MOLM-13 cells incubated for 72 hrs by MTS assay; assay type: functional
BaF3 [21] = assay: cells; settings: Mus musculus; remark: listed apart in the source
BaF3 [22] = assay: cells; settings: Mus musculus; remark: listed apart in the source
[23] = target: Leukocyte tyrosine kinase receptor (Homo sapiens) (UniProt P29376); assay: Inhibition of LTK (unknown origin)
Leukocyte tyrosine kinase receptor (Homo sapiens), sequence (P29376 whole entry): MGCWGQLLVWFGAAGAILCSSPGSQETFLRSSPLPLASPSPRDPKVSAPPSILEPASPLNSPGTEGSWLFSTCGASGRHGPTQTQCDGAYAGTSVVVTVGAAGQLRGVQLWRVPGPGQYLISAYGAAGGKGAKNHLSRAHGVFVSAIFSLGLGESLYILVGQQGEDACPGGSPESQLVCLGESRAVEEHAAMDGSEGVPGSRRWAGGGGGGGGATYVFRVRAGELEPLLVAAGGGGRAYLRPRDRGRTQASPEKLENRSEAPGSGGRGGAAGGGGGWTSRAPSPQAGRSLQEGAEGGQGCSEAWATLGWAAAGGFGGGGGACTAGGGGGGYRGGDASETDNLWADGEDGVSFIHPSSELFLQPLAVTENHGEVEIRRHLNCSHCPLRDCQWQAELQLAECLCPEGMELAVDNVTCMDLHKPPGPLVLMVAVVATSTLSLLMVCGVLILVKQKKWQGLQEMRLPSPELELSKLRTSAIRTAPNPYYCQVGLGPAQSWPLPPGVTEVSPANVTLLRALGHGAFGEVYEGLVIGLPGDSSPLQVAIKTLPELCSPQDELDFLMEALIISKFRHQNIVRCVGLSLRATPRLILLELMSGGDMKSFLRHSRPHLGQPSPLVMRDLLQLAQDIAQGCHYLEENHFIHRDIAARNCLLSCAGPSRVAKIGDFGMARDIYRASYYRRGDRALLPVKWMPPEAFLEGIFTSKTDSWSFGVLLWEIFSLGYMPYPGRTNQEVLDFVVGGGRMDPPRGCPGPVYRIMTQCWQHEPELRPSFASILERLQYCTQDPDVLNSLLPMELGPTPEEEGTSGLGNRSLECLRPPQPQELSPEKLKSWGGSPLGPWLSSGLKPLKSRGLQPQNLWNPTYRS

[24] = Antiproliferative activity against mouse 32D cells expressing FLT3-ITD-F691L assessed as cell growth inhibition; assay type: functional
[25] = Antiproliferative activity against mouse 32D cells expressing FLT3-ITD-Y842C assessed as cell growth inhibition; assay type: functional
[26] = Antiproliferative activity against mouse 32D cells expressing FLT3-ITD assessed as cell growth inhibition; assay type: functional, cell-based
[27] = Antiproliferative activity against mouse 32D cells expressing FLT3-ITD-D835Y assessed as cell growth inhibition; assay type: functional
[28] = Antiproliferative activity against mouse 32D cells expressing FLT3-D835Y assessed as cell growth inhibition; assay type: functional, cell-based
[29] = Antiproliferative activity against mouse 32D cells expressing FLT3-D835H assessed as cell growth inhibition; assay type: functional
[30] = Antiproliferative activity against mouse 32D cells expressing FLT3-ITD-Y842H assessed as cell growth inhibition; assay type: functional
[31] = target: Platelet-derived growth factor receptor alpha (Homo sapiens, UniProt P16234); assay: Inhibition of PDGFR alpha (unknown origin)
Platelet-derived growth factor receptor alpha, sequence (P16234 whole entry): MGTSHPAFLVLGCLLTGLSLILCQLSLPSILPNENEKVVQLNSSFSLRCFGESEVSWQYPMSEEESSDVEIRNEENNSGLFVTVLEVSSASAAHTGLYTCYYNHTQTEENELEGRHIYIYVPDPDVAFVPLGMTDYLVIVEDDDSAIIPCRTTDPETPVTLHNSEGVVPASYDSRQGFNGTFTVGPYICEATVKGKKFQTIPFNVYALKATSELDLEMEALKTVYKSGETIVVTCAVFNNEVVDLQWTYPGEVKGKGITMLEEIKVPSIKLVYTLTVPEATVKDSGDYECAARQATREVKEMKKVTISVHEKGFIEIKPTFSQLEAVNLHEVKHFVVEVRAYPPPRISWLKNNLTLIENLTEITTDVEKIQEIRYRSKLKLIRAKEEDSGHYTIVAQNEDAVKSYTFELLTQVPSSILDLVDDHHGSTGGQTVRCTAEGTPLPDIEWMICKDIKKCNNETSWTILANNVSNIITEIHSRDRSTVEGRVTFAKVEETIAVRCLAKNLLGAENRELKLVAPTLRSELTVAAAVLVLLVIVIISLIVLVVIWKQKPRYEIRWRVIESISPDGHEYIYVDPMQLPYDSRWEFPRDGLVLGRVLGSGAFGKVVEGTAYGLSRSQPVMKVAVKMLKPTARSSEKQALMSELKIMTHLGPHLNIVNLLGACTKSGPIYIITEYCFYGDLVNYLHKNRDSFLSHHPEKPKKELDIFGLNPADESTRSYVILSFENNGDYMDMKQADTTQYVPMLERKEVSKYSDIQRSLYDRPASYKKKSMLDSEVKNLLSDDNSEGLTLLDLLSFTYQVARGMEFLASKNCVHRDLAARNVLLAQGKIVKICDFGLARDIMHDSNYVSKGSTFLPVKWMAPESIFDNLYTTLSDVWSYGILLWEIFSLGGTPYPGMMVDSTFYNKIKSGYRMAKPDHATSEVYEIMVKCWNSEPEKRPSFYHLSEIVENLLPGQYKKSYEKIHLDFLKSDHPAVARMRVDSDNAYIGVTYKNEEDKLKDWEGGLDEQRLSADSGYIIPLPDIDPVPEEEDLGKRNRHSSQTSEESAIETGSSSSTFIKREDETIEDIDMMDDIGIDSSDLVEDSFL

[32] = target: Tyrosine-protein kinase Fgr (Homo sapiens, UniProt P09769); assay: Inhibition of FGR (unknown origin)
Tyrosine-protein kinase Fgr, sequence (P09769 whole entry): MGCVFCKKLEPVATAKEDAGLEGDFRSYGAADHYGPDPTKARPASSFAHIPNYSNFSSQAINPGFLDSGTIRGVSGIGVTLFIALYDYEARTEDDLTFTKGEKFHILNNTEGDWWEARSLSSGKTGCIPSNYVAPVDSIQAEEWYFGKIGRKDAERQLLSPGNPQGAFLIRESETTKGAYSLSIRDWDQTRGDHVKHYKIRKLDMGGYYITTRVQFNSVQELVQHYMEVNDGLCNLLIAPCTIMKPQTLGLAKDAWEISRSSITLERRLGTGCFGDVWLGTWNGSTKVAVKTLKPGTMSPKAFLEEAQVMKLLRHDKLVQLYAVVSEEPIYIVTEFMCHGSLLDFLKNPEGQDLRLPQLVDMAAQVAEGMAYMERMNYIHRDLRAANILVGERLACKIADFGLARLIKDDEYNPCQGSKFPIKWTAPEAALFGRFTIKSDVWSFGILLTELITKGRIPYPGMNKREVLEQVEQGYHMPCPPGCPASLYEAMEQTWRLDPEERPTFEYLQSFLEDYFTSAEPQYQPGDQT

[33] = target: Tyrosine-protein kinase ABL1 (Homo sapiens, UniProt P00519); assay: Inhibition of ABL1 (unknown origin)
Tyrosine-protein kinase ABL1, sequence (P00519 whole entry): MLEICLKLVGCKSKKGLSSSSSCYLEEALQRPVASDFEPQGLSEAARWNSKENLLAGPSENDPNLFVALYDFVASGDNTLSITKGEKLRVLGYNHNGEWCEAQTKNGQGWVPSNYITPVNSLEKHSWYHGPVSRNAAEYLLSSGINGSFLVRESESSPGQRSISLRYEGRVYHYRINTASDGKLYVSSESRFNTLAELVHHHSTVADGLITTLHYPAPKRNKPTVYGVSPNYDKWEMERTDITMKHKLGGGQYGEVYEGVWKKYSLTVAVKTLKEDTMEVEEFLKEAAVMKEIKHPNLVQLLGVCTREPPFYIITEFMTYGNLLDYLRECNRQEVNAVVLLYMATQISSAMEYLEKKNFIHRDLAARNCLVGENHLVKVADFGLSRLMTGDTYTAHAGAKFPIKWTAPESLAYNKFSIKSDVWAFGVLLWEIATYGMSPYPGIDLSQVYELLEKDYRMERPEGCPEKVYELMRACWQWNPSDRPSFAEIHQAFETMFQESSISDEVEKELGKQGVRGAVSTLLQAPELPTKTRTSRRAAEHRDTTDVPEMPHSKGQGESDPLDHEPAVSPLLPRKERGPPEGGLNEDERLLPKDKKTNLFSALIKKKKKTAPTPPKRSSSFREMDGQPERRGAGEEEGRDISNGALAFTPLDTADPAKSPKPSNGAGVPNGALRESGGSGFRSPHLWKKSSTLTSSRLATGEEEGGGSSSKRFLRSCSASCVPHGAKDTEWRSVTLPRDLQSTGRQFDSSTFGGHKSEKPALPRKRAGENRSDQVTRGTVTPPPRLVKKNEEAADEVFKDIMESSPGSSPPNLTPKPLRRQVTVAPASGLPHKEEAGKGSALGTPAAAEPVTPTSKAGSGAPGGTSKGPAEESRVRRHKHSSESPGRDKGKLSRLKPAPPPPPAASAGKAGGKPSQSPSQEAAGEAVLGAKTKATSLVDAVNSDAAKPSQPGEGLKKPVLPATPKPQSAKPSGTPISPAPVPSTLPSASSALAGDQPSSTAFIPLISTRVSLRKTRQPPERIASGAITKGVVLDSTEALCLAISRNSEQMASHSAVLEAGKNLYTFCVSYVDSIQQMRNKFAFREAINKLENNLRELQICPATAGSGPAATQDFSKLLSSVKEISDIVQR

[34] = target: NT-3 growth factor receptor (Homo sapiens, UniProt Q16288); assay: Inhibition of TrkC (unknown origin)
BaF3 [35] = assay: Cytotoxicity against mouse BaF3 cells expressing FLT3-ITD measured after 72 hrs by cell titre glo assay; assay type: functional, cell-based; settings: BaF3, 72 h
BaF3 [36] = assay: Cytotoxicity against mouse BaF3 cells expressing FLT3-ITD-F691L measured after 72 hrs by cell titre glo assay; assay type: functional, cell-based; settings: BaF3, 72 h
BaF3 [37] = assay: Cytotoxicity against mouse BaF3 cells expressing FLT3-ITD-D835Y measured after 72 hrs by cell titre glo assay; assay type: functional, cell-based; settings: BaF3, 72 h
MOLM-13 [38] = assay: Cytotoxicity against human MOLM-13 cells expressing FLT3-D835Y measured after 72 hrs by cell titre glo assay; assay type: functional, cell-based; settings: MOLM-13, 72 h
BaF3 [39] = assay: Cytotoxicity against mouse BaF3 cells expressing FLT3-ITD-D835H measured after 72 hrs by cell titre glo assay; assay type: functional, cell-based; settings: BaF3, 72 h
MOLM-13 [40] = assay: Cytotoxicity against human MOLM-13 cells measured after 72 hrs by cell titre glo assay; assay type: functional, cell-based; settings: MOLM-13, 72 h

SMILES: C[C@H]1CC[C@@H](n2c3cnccc3c3cnc(Nc4ccc5c(n4)CCN(C(=O)CO)C5)nc32)CC1
pKd [10]: 9.00 | pIC50 (MV4-11 [11]): 8.05 | pIC50 [12]: 6.43 | pIC50 (MV4-11 [13]): 7.74 | pIC50 [14]: 8.10 | pIC50 [15]: 9.00 | pIC50 [16]: 8.52 | pKd [17]: 9.00 | pKd [18]: 8.40

SMILES: CCCNc1nc(Nc2ccc(C#N)cc2)ncc1C#CCCCNC(=O)[C@H](C)N(C)C(=O)/C=C/CN(C)C [FF-10101]
GI50 [24]: 10 nM | GI50 [25]: 3.5 nM | pIC50 [26]: 8.72 | GI50 [27]: 0.81 nM | pIC50 [28]: 9.49 | GI50 [29]: 1.1 nM | GI50 [30]: 5.3 nM

SMILES: COc1cc2ncc(-c3cccc(NC4CCNC4)n3)n2cc1-c1cnn(C)c1 (centres undefined)
pIC50 [31]: 8.96 | pIC50 [32]: > 9.30 | pIC50 [33]: 9.22 | pIC50 [34]: 9.15

SMILES: C1=N/C2=N/c3ccc(OCCN4CCCC4)c(c3)COC/C=C/COCc3cccc(c3)C(=C1)N2 [PACRITINIB]
pIC50 (BaF3 [35]): 6.88 | pIC50 (BaF3 [36]): 6.54 | pIC50 (BaF3 [37]): 6.36 | pIC50 (MOLM-13 [38]): 6.76 | pIC50 (BaF3 [39]): 6.51 | pIC50 (MOLM-13 [40]): 7.14

The remaining lines, values ahead:

pIC50 (BaF3 [1]): 5.33 | pIC50 (BaF3 [2]): 6.89 | pIC50 (MV4-11 [3]): 6.70 | pIC50 (MOLM-14 [4]): 6.17 | pIC50 (BaF3 [5]): 7.01 | pIC50 (BaF3 [6]): 9.72 | pIC50 (BaF3 [7]): 9.77 | pIC50 (BaF3 [8]): 8.60 | pIC50 (MOLM-14 [9]): 6.46
SMILES: FC(F)(F)c1ccc(CNc2ccc(Cc3c[nH]c4ncc(Cl)cc34)cn2)cn1 [PEXIDARTINIB]

GI50 (MOLM-13 [19]): 180 nM | GI50 (MOLM-13 [20]): 100 nM
SMILES: Cc1nn(C)cc1-c1nc2c(N3CCN(Cc4ccc(Cl)cc4)CC3)c(Cl)cnc2[nH]1 [MOBINITINIB]

pIC50 (BaF3 [21]): 8.74 | pIC50 (BaF3 [22]): 8.68 | pIC50 [23]: 9.46
SMILES: CCc1nc(C(N)=O)c(Nc2ccc(N3CCC(N4CCN(C)CC4)CC3)c(OC)c2)nc1NC1CCOCC1 [GILTERITINIB]

pIC50 (BaF3 [1]): 7.66 | pIC50 (BaF3 [2]): 9.66 | pIC50 (MV4-11 [3]): 9.85 | pIC50 (BaF3 [5]): 8.96 | pIC50 (BaF3 [6]): 9.72 | pIC50 (BaF3 [7]): 9.77 | pIC50 [18]: 8.15 | pIC50 (BaF3 [8]): 8.60 | pIC50 (MOLM-14 [9]): 9.89
SMILES: COc1cc2c(Oc3ccc(NC(=O)Nc4cccc(C)c4)cc3F)ccnc2cc1OCCCN1CCOCC1
